Data published in PMC5776679 (Journal of medicinal chemistry, 2016).
Like-named read-outs stand apart in the source and are kept apart here.

Experiments:
HepG2 [1] = assay: Cytotoxicity in uninfected HepG2 cells; conditions: read-out: CC50 (HepG2), concentration required to reduce the viability of uninfected cells by 50%, triplicate
HBV = conditions: therapeutic index at the EC50, HepG2
HIV-1 = conditions: for EC50: read-out: EC50 (PBMCs) HIV-1
PBMCs = assay: Cytotoxicity in uninfected PBMCs; conditions: read-out: CC50 (PBMCs), concentration required to reduce the viability of uninfected cells by 50%, triplicate
Stability in PBS = conditions: all examined media except human serum
[2] = clinical trials; cited from earlier work
HepG2 [3] = conditions: human
in vitro = conditions: human
[4] = monkeys; cited from earlier work
[5] = rats; cited from earlier work
[6] = phase I, preliminary data on Chimerix's website; cited from earlier work
[7] = therapeutic index at the EC50, PBMCs

Compound: 2-(Decyldisulfanyl)ethyl (2-(Decylsulfinothioyl)ethyl) ((((R)-1-(6-Amino-9H-purin-9-yl)propan-2-yl)oxy)methyl)phosphonate [13a]
- CC50 (HepG2 [1]): > 100 µM
- TI (CC50/EC50) HBV (HBV): >1
- TI (CC50/EC50) HIV-1 (HIV-1): >287
- EC50 (HIV-1): 0.349 µM
- CC50 (PBMCs): > 100 µM

Compound: 2-(Dodecyldisulfanyl)ethyl (2-(Dodecylsulfinothioyl)ethyl) ((((R)-1-(6-Amino-9H-purin-9-yl)propan-2-yl)oxy)methyl)phosphonate [13b]
- CC50 (HepG2 [1]): > 100 µM
- TI (CC50/EC50) HBV (HBV): >1
- TI (CC50/EC50) HIV-1 (HIV-1): >85.0
- EC50 (HIV-1): 1.18 µM
- CC50 (PBMCs): > 100 µM

Compound: 2-(Hexadecyldisulfanyl)ethyl (2-(Hexadecylsulfinothioyl)ethyl) ((((R)-1-(6-Amino-9H-purin-9-yl)propan-2-yl)oxy)methyl)-phosphonate [13d]
- CC50 (HepG2 [1]): > 25 µM
- TI (CC50/EC50) HBV (HBV): >1
- TI (CC50/EC50) HIV-1 (HIV-1): 4.0
- EC50 (HIV-1): 6.32 µM
- CC50 (PBMCs): > 25 µM

Compound: 2-(Hexadecyldisulfanyl)ethyl Octyl ((((R)-1-(6-Amino-9H-purin-9-yl)propan-2-yl)oxy)methyl)phosphonate [compound 22]
- TI (CC50/EC50) HIV-1 (HIV-1): >50
- EC50 (HIV-1): 0.911 µM

Compound: 2-(Octadecyldisulfanyl)ethyl (2-(Octadecylsulfinothioyl)ethyl) ((((R)-1-(6-Amino-9H-purin-9-yl)propan-2-yl)oxy)methyl)-phosphonate [13e]
- CC50 (HepG2 [1]): > 25 µM
- TI (CC50/EC50) HBV (HBV): >1
- TI (CC50/EC50) HIV-1 (HIV-1): >76
- EC50 (HIV-1): 0.331 µM
- CC50 (PBMCs): > 25 µM

Compound: 2-(Tetradecyldisulfanyl)ethyl (2-(Tetradecylsulfinothioyl)ethyl) ((((R)-1-(6-Amino-9H-purin-9-yl)propan-2-yl)oxy)methyl)-phosphonate [13c]
- CC50 (HepG2 [1]): > 100 µM
- TI (CC50/EC50) HBV (HBV): >1
- TI (CC50/EC50) HIV-1 (HIV-1): >529
- EC50 (HIV-1): 0.189 µM
- CC50 (PBMCs): > 100 µM

Compound: CCCCCCCCCCSSCCOP(=O)(O)CO[C@H](C)Cn1cnc2c(N)ncnc21.N [12a, 2-(Decyldisulfanyl)ethyl Hydrogen ((((R)-1-(6-Amino-9H-purin-9-yl)propan-2-yl)oxy)methyl)phosphonate]
- TI (CC50/EC50) HBV (HBV): >1
- TI (CC50/EC50) HIV-1 (HIV-1; [7]): >590

Compound: CCCCCCCCCCCCSSCCOP(=O)(O)CO[C@H](C)Cn1cnc2c(N)ncnc21.N [12b, 2-(Dodecyldisulfanyl)ethyl Hydrogen ((((R)-1-(6-Amino-9H-purin-9-yl)propan-2-yl)oxy)methyl)phosphonate]
- TI (CC50/EC50) HBV (HBV): >30

Compound: CCCCCCCCCCCCCCSSCCOP(=O)(O)CO[C@H](C)Cn1cnc2c(N)ncnc21.N [12c, 2-(Tetradecyldisulfanyl)ethyl Hydrogen ((((R)-1-(6-Amino-9H-purin-9-yl)propan-2-yl)oxy)methyl)phosphonate]
- fold stability increase over 12d (Stability in PBS): ~2 fold
- TI (CC50/EC50) HBV (HBV): >56
- TI (CC50/EC50) HIV-1 (HIV-1; [7]): 28000

Compound: CCCCCCCCCCCCCCCCSSCCOP(=O)(O)CO[C@H](C)Cn1cnc2c(N)ncnc21.N [12d, 2-(Hexadecyldisulfanyl)ethyl Hydrogen ((((R)-1-(6-Amino-9H-purin-9-yl)propan-2-yl)oxy)methyl)phosphonate]
- TI (CC50/EC50) HBV (HBV): >1200

Compound: CCCCCCCCCCCCCCCCCCSSCCOP(=O)(O)CO[C@H](C)Cn1cnc2c(N)ncnc21.N [12e, 2-(Octadecyldisulfanyl)ethyl Hydrogen ((((R)-1-(6-Amino-9H-purin-9-yl)propan-2-yl)oxy)methyl)phosphonate]
- TI (CC50/EC50) HBV (HBV): >50

Compound: C[C@H](Cn1cnc2c(N)ncnc21)OCP(=O)(O)OCCSSCCO [DTE–TFV, 2-((2-Hydroxyethyl)disulfanyl)ethyl Hydrogen ((((R)-1-(6-Amino-9H-purin-9-yl)propan-2-yl)oxy)methyl)phosphonate]
- TI (CC50/EC50) HBV (HBV): >8.6
- TI (CC50/EC50) HIV-1 (HIV-1): >62.1

Compound: CC(C)OC(=O)[C@H](C)N[P@](=O)(CO[C@H](C)Cn1cnc2c(N)ncnc21)Oc1ccccc1 [TAF, tenofovir-alafenamide]
- nephrotoxicity [2]: little to no nephrotoxicity

Compound: CC(C)OC(=O)OCOP(=O)(CO[C@H](C)Cn1cnc2c(N)ncnc21)OCOC(=O)OC(C)C.O=C(O)/C=C/C(=O)O [TDF, tenofovir disoproxil fumarate]
- CC50 (HepG2 [3]): 64.5 µM
- CC50 (in vitro): 29.2 µM

Compound: C[C@H](Cn1cnc2c(N)ncnc21)OCP(=O)(O)O [TFV, Tenofovir, reference compound]
- TI (CC50/EC50) HIV-1 (HIV-1): >300

Compound: Nc1ncnc2c1ncn2CCOCP(=O)(O)O [adefovir]
- bioavailability [4]: < 1%
- bioavailability [5]: 8–11%

Compound: CCCCCCCCCCCCCCCCOCCCOP(=O)(O)CO[C@H](C)Cn1cnc2c(N)ncnc21 [compound 1, hexadecyloxypropyl-tenofovir, reference compound]
- tolerability [6]: well-tolerated
- TI (CC50/EC50) HIV-1 (HIV-1): >5000

Compound: C[C@H](Cn1cnc2c(N)ncnc21)OCP(=O)(O)OCCS [compound 9, 2-Mercaptoethyl Hydrogen ((((R)-1-(6-Amino-9H-purin-9-yl)-propan-2yl)oxy)methyl)phosphonate]
- TI (CC50/EC50) HBV (HBV): >2.4
- TI (CC50/EC50) HIV-1 (HIV-1): >5.38
